Data published in article PMC11121628, “Regulation of T Lymphocyte Functions through Calcium Signaling Modulation by Nootkatone” (International Journal of Molecular Sciences, 2024).

What was measured:
Format in all cases: cell-based
ORAI1 (CRAC channel) = target: T1, ORAI1 (CRAC channel) (Homo sapiens, UniProt Q96D31); test: whole-cell patch clamp of ICRAC in transfected HEK293T cells
T1 construct: human ORAI1 (hORAI1) co-transfected with hSTIM1 in HEK293T cells; with STIM1

KV1.3 = target: T2, KV1.3 (Homo sapiens, UniProt P22001); test: whole-cell patch clamp of IKV1.[…] in Jurkat T cells
T2 construct: gene KCNA3; KV1.3 current in Jurkat T cells

KCa3.1 = target: T3, KCa3.1 (Homo sapiens, UniProt O15554); test: whole-cell patch clamp of IKCa3.[…] in stable HEK293T cells; conditions: HEK-293T
T3 construct: gene KCNN4
T3 sequence (O15554 whole entry): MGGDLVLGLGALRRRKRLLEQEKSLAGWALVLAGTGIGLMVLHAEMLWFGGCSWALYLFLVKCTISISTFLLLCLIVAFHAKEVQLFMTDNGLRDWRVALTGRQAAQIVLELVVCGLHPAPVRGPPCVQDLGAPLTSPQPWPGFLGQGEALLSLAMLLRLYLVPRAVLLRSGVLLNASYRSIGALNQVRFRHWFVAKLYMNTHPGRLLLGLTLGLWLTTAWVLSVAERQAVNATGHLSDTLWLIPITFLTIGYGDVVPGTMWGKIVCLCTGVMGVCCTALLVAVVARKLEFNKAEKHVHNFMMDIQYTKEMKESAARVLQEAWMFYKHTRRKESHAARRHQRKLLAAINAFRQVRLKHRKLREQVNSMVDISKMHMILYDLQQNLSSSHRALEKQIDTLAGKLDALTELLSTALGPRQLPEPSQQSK

T2 sequence (P22001 whole entry): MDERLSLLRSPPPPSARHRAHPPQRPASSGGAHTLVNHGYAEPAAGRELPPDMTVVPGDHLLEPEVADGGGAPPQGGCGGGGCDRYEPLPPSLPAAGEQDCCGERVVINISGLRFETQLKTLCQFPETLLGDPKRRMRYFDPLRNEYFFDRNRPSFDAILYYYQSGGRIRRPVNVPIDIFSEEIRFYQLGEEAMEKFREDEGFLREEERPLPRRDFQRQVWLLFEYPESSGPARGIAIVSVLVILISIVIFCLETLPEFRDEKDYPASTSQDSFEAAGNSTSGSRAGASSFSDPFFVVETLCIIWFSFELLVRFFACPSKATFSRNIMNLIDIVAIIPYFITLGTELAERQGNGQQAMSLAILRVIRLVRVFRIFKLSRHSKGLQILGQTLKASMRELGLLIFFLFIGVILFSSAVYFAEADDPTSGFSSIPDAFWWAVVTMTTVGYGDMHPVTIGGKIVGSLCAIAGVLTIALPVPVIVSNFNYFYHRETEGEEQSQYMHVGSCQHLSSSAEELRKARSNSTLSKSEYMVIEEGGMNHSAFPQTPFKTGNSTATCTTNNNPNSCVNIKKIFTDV
T1 sequence (Q96D31 whole entry): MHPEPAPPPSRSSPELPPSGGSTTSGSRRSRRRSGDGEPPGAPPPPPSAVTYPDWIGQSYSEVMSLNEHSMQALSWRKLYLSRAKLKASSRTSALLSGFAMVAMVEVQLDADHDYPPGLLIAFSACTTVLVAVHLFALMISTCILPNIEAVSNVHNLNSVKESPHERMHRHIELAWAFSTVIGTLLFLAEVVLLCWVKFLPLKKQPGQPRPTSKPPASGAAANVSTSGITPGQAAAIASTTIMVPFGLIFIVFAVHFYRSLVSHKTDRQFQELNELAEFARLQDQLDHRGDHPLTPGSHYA
T1 sequence (Q13586 23-685, further chain): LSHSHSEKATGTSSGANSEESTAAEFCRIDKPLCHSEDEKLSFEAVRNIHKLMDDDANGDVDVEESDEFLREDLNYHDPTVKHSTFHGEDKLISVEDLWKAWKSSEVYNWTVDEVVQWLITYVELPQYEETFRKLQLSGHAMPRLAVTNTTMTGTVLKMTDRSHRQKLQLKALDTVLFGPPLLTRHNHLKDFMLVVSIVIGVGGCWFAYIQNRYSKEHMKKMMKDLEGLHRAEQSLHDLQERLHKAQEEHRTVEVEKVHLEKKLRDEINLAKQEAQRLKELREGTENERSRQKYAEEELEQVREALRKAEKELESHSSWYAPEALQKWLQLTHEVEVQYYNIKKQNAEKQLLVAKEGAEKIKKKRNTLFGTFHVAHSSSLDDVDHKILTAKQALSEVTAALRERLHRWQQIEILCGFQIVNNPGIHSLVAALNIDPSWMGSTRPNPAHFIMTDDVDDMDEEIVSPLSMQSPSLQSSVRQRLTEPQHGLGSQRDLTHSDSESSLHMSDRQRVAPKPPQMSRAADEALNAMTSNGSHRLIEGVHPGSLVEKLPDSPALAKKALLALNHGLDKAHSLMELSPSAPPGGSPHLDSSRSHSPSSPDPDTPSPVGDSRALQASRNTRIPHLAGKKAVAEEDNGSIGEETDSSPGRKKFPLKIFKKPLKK

C=C(C)[C@@H]1CCC2=CC(=O)C[C@@H](C)[C@]2(C)C1 [nootkatone]
IC50 (ORAI1 (CRAC channel)): ~12.6 µM | IC50 (KV1.3): 10.8 µM | inhibition at 100 µM (KCa3.1): ~20%
